Test results published in patent publication US10463661B2, “Anthelmintic compounds” (MERIAL INC., priority 2014, dated 2019).

What was measured:
Haemonchus contortus = assay: Screening method to test activity against Haemonchus contortus L1 larvae (Method A); assay type: cell-based; details: 96 h, read-out: motility inhibition
Description: Screening method to test activity of compounds against Haemonchus contortus.
Twenty L1 Haemonchus contortus larvae were added to wells of a microtitre plate containing a nutrient medium and the test compound in DMSO. An analysis was conducted at 4 days to determine the extent of development of the larvae. Larvae exposed to DMSO alone served as controls. Compounds 3, 6, 12, 15, 43, 44, 45, 46, 47, 48, 49, & 50 gave at least 90% motility inhibition at a test concentration of less than or equal to <1 μM when assessed at the 4 day time point.

[1] = Permeability in the CACO-2/TC7 in vitro model (Method C); assay type: in vitro ADME; details: human, apical to basolateral, pH gradient 6.5/7.4 and BSA gradient 0.5%/5%, 20 μM compound
Text: Permeability of Compounds.
Permeability of a compound across the epithelium cells along the gastrointestinal tract is an important limiting factor for the oral absorption and systemic availability of the compound. An in vitro model utilizing Caco-2/TC7 cells is employed to assess the permeability characteristics of new chemical entities (NCEs). For orally administered compounds, absorption depends on the intrinsic permeability across the intestinal epithelium and whether the active agent is a substrate or inhibitor of uptake or efflux transporters.
The permeability studies were performed under standard conditions in the apical to basolateral (A→B) direction with a pH gradient and a BSA gradient (standard apical medium (0.5% BSA at pH 6.5)/standard basal medium (5% BSA at pH 7.4)); conditions that most closely reflect the conditions in the in vivo situation. Samples were deproteinized by the addition of 400 μl acetonitrile to 200 μl sample, followed by a 20-minute centrifugation at 1730 g. […] Analytical conditions: Supernatants recovered following centrifugation were analysed by LC/MS/MS using a reverse phase column and the mobile phases delivered at 0.3 ml/minute in a gradient: water (A) and acetonitrile (B) (each with 0.1% formic acid). […]

[2] = test system: ivermectin-resistant strains of Haemonchus contortus; assay: Efficacy against ivermectin-resistant endoparasites in sheep (FIG. 2); assay type: in vivo; details: 0.2 mg/kg orally
[3] = test system: ivermectin-resistant strains of Trichostrongylus columbriformis; assay: as above; assay type: in vivo; details: 0.2 mg/kg orally
[4] = test system: ivermectin-resistant strains of Ostertagia circumcincta; assay: as above; assay type: in vivo; details: 0.2 mg/kg orally

Compound | inhibition at 1 µM (Haemonchus contortus) | Papp A→B at 20 μM [1] | efficacy [2] | efficacy [3] | efficacy [4]
N#Cc1ccc(N2CCC(OCC(=O)N3CCN(c4nc5cc(C(F)(F)F)ccc5s4)CC3)CC2)cc1C(F)(F)F [Compound 3, 4-[4-[2-oxo-2-[4-[5-(trifluoromethyl)-1,3-benzothiazol-2-yl]piperazin-1-yl]ethoxy]-1-piperidyl]-2-(trifluoromethyl)benzonitrile] | ≥ 90% | 2.8 ×10⁻⁶ cm/s |  |  | 
N#Cc1ccc(N2CC(OCC(=O)N3CCN(c4nc5cc(C(F)(F)F)ccc5s4)CC3)C2)cc1C(F)(F)F [Compound 6, 4-[3-[2-oxo-2-[4-[5-(trifluoromethyl)-1,3-benzothiazol-2-yl]piperazin-1-yl]ethoxy]azetidin-1-yl]-2-(trifluoromethyl)benzonitrile] | ≥ 90% |  |  |  | 
ivermectin |  |  | almost completely inactive | less than 60% | less than 30%
